Our source for the T/C values is PubChem BioAssay AID298 (DTP/NCI, 2004).

The experiment deals with MX-1 breast xenograft, intrarenal, nude mice, tumor weight. Put plainly: NCI In Vivo Anticancer Drug Screen. Data for tumor model Human Mammary Carcinoma MX-1 Xenograft (intrarenal inoculation) in NU/NU BALB/C (nude) mice. The conditions noted are these: endpoint: mean tumor weight change, higher = larger tumour. The method in brief:
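Efficacy in vivo: tumor measurement or survival of treated animals divided by that of vehicle-dosed controls.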

The mark [1] stands for this setting: dose: 150.0 mg/kg/injection, schedule: Q04DX003 (ip), vehicle: saline with Tween-80.
[2] abbreviates: dose: 300.0 mg/kg/injection, schedule: Q04DX003 (ip), vehicle: saline with Tween-80.

“And” between values parts separate entries of the source, which are not always exact repeats. Equal entries are not always repeated. Results filed as inconclusive are left out.

In the case of `COc1cccc2c1[C@H]1CO[C@H]3C4C[C@H](C(=O)O)C([C@@H](C2)N13)N4C` (stereo not given in full), the T/C is 50 % of control (dose: 1.25 mg/kg/injection, schedule: Q04DX003 (ip), vehicle: other); 32 % of control and 33 % of control (dose: 2.5 mg/kg/injection, schedule: Q04DX003 (ip), vehicle: other); 16 % of control and 19 % of control (dose: 5.0 mg/kg/injection, schedule: Q04DX003 (ip), vehicle: other); 9 % of control (dose: 7.5 mg/kg/injection, schedule: Q04DX003 (ip), vehicle: water); 8 % of control and 9 % of control (dose: 10.0 mg/kg/injection, schedule: Q04DX003 (ip), vehicle: other); 2 % of control (dose: 15.0 mg/kg/injection, schedule: Q04DX003 (ip), vehicle: water). Besides, the T/C is 2 % of control (dose: 20.0 mg/kg/injection, schedule: Q04DX003 (ip), vehicle: other) and 2 % of control (dose: 30.0 mg/kg/injection, schedule: Q04DX003 (ip), vehicle: water).
For the molecule `CC1=C[P+](c2ccccc2)(c2ccccc2)C=C(c2ccccc2)O1`, the T/C (dose: 0.75 mg/kg/injection, schedule: Q04DX003 (ip), vehicle: saline) is 124 % of control.
For `NC(=O)c1c[se]c(C2OC(CO)C(O)C2O)n1` (stereo not given), the T/C is, setting by setting: (dose: 75.0 mg/kg/injection, schedule: Q04DX003 (ip), vehicle: water) 88 % of control; (dose: 150.0 mg/kg/injection, schedule: Q04DX003 (ip), vehicle: water) 61 % of control; (dose: 300.0 mg/kg/injection, schedule: Q04DX003 (ip), vehicle: water) 50 % of control; (dose: 600.0 mg/kg/injection, schedule: Q04DX003 (ip), vehicle: water) 43 % of control.
Regarding `CC1CN1P1(N2CC2C)=NP(N2CC2C)(N2CC2C)=NP(N2CC2C)(N2CC2C)=N1` (stereo not given), the T/C (dose: 75.0 mg/kg/injection, schedule: Q04DX003 (sc), vehicle: saline) was 51 % of control and the T/C (dose: 150.0 mg/kg/injection, schedule: Q04DX003 (sc), vehicle: saline) is 3 % of control.
For the molecule `Clc1ccc(CN2COc3c(ccc4cccnc34)C2)cc1Cl`, the T/C was 91 % of control (dose: 100.0 mg/kg/injection, schedule: Q01DX010 (sc), vehicle: saline with Tween-80); 71 % of control (dose: 400.0 mg/kg/injection, schedule: Q01DX010 (sc), vehicle: saline with Tween-80); 44 % of control (dose: 800.0 mg/kg/injection, schedule: Q01DX010 (sc), vehicle: saline with Tween-80).
Take `CNC(=O)Sc1ccc(C)c(N(C)C)c1`: the T/C by setting is: under setting [1], 92 % of control; under setting [2], 44 % of control.
As to `CCOc1ccc(C(C)c2cc3c(cc2OC)OCO3)cc1` (stereo not given), the T/C (dose: 150.0 mg/kg/injection, schedule: Q04DX003 (ip), vehicle: distilled water + Tween-80) is 93 % of control; the T/C (dose: 300.0 mg/kg/injection, schedule: Q04DX003 (ip), vehicle: distilled water + Tween-80) is 56 % of control; the T/C (dose: 600.0 mg/kg/injection, schedule: Q04DX003 (ip), vehicle: distilled water + Tween-80) was 27 % of control.
For `O=C/C(Cl)=C(/Cl)C(=O)O`, the T/C by setting is: (dose: 10.0 mg/kg/injection, schedule: Q01DX010 (sc), vehicle: saline with Tween-80) 87 % of control; (dose: 20.0 mg/kg/injection, schedule: Q01DX010 (sc), vehicle: saline with Tween-80) 36 % of control; (dose: 40.0 mg/kg/injection, schedule: Q01DX010 (sc), vehicle: saline with Tween-80) 41 % of control.
`O=NN(CCCl)C(=O)NCCO`: the T/C was 82 % of control (dose: 3.13 mg/kg/injection, schedule: Q04DX003 (sc), vehicle: water); 38 % of control (dose: 6.25 mg/kg/injection, schedule: Q04DX003 (sc), vehicle: water); 7 % of control (dose: 12.5 mg/kg/injection, schedule: Q04DX003 (sc), vehicle: water).
As for `Cc1cc(=NO)cc(C)n1O`, the T/C is, setting by setting: (dose: 300.0 mg/kg/injection, schedule: Q04DX003 (sc), vehicle: distilled water + alcohol) 116 % of control; (dose: 1200.0 mg/kg/injection, schedule: Q04DX003 (sc), vehicle: distilled water + alcohol) 90 % of control; (dose: 2400.0 mg/kg/injection, schedule: Q04DX003 (sc), vehicle: distilled water + alcohol) 89 % of control.
For `CO[C@@H]1C2=CC=CC=C[C@H]2n2c(=O)n(C)c(=O)n21`, the T/C is 36 % of control (dose: 75.0 mg/kg/injection, schedule: Q04DX003 (ip), vehicle: other); 34 % of control (dose: 150.0 mg/kg/injection, schedule: Q04DX003 (ip), vehicle: other); 92 % of control (dose: 300.0 mg/kg/injection, schedule: Q04DX003 (ip), vehicle: other).
Regarding `COc1oc(C2C/C(=C/C(C)=C/C(C)=C/C(C)=C/c3ccc([N+](=O)[O-])cc3)CO2)c(C)c(=O)c1C` (stereo not given), the T/C is, setting by setting: (dose: 1.0 mg/kg/injection, schedule: Q04DX003 (ip), vehicle: saline) 106 % of control; (dose: 2.0 mg/kg/injection, schedule: Q04DX003 (ip), vehicle: saline) 48 % of control.
For `Cc1cc(N(CCOS(C)(=O)=O)CCOS(C)(=O)=O)ccc1C=Nc1ccc(-c2nc(Cc3ccccc3)sc2C)cc1`, the T/C (dose: 50.0 mg/kg/injection, schedule: Q01DX010 (sc), vehicle: Klucel (hydroxypropylcellulose) (HPC)) is -72 % of control; the T/C (dose: 100.0 mg/kg/injection, schedule: Q01DX010 (sc), vehicle: Klucel (hydroxypropylcellulose) (HPC)) was -60 % of control; the T/C (dose: 200.0 mg/kg/injection, schedule: Q01DX010 (sc), vehicle: Klucel (hydroxypropylcellulose) (HPC)) is -90 % of control; the T/C (dose: 400.0 mg/kg/injection, schedule: Q01DX010 (sc), vehicle: Klucel (hydroxypropylcellulose) (HPC)) is -86 % of control.
For the molecule `O=C1C2CC(Cl)C(SSC3CC4C(=O)N(SC(Cl)(Cl)C(Cl)Cl)C(=O)C4CC3Cl)CC2C(=O)N1SC(Cl)(Cl)C(Cl)Cl` (stereo not given), the T/C is, setting by setting: (dose: 75.0 mg/kg/injection, schedule: Q04DX003 (ip), vehicle: saline with Tween-80) 88 % of control; under setting [1], 45 % of control.
With `COc1c(C=O)c2c(c(OC)c1OC)-c1ccc(OC)c(=O)cc1[C@@H](NC(C)=O)CC2`, the T/C reads like this: (dose: 9.37 mg/kg/injection, schedule: Q04DX003 (sc), vehicle: Klucel (hydroxypropylcellulose) (HPC)) 62 % of control; (dose: 18.75 mg/kg/injection, schedule: Q04DX003 (sc), vehicle: Klucel (hydroxypropylcellulose) (HPC)) 40 % of control; (dose: 37.5 mg/kg/injection, schedule: Q04DX003 (sc), vehicle: Klucel (hydroxypropylcellulose) (HPC)) 13 % of control.
Turning to `O=NN(CCCl)C(=O)NCCCl`, the T/C runs as follows: (dose: 12.0 mg/kg/injection, schedule: Q04DX003 (ip), vehicle: saline + alcohol) 60 % of control and 74 % of control; (dose: 15.0 mg/kg/injection, schedule: Q04DX003 (sc), vehicle: Klucel (hydroxypropylcellulose) (HPC)) 30 % of control; (dose: 18.0 mg/kg/injection, schedule: Q04DX003 (ip), vehicle: saline + alcohol) 27 % of control and 49 % of control; (dose: 30.0 mg/kg/injection, schedule: Q04DX003 (sc), vehicle: Klucel (hydroxypropylcellulose) (HPC)) 1 % of control.
As for `CNc1ncn(-c2c(C)cccc2C)c(=O)n1`, the T/C by setting is: under setting [1], 92 % of control and 97 % of control; under setting [2], 77 % of control; (dose: 600.0 mg/kg/injection, schedule: Q04DX003 (ip), vehicle: saline with Tween-80) 25 % of control.
As for `O=[N+]([O-])c1ccc(Sc2ccncn2)c([N+](=O)[O-])c1`, the T/C is, setting by setting: (dose: 150.0 mg/kg/injection, schedule: Q04DX003 (sc), vehicle: saline with Tween-80) 158 % of control; (dose: 300.0 mg/kg/injection, schedule: Q04DX003 (sc), vehicle: saline with Tween-80) 153 % of control; (dose: 600.0 mg/kg/injection, schedule: Q04DX003 (sc), vehicle: saline with Tween-80) 86 % of control; (dose: 1200.0 mg/kg/injection, schedule: Q04DX003 (sc), vehicle: saline with Tween-80) 115 % of control.
As to `O=C(O)CC(=O)O.[NH-]C1CCCCC1[NH-].[Pt+2]` (stereo not given), the T/C was 93 % of control (dose: 10.0 mg/kg/injection, schedule: Q01DX010 (sc), vehicle: dextrose); 92 % of control (dose: 20.0 mg/kg/injection, schedule: Q01DX010 (sc), vehicle: dextrose); -84 % of control (dose: 30.0 mg/kg/injection, schedule: Q01DX010 (sc), vehicle: dextrose); 83 % of control (dose: 40.0 mg/kg/injection, schedule: Q01DX010 (sc), vehicle: dextrose); -86 % of control (dose: 60.0 mg/kg/injection, schedule: Q01DX010 (sc), vehicle: dextrose); 74 % of control (dose: 80.0 mg/kg/injection, schedule: Q01DX010 (sc), vehicle: dextrose).
For `Cc1nc2c(N)cc(Cl)cc2[nH]1`, the T/C is, setting by setting: (dose: 100.0 mg/kg/injection, schedule: Q04DX003 (ip), vehicle: saline with Tween-80) 95 % of control; (dose: 200.0 mg/kg/injection, schedule: Q04DX003 (ip), vehicle: saline with Tween-80) 45 % of control.
